Source: PubChem BioAssay (NCI)
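Method: 48-hour compound exposure of cells in 96-well plates, five concentrations, linear interpolation of endpoints. At the TGI there is no net growth.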

Key:
Assay in all cases: NCI tumour cell line growth inhibition, 48 h
786-0 renal = system: 786-0 renal
A498 renal = system: A498 renal
ACHN renal = system: ACHN renal
BT-549 breast = system: BT-549 breast
CAKI-1 renal = system: CAKI-1 renal
CCRF-CEM leukemia = system: CCRF-CEM leukemia
COLO 205 colon = system: COLO 205 colon
DU-145 prostate = system: DU-145 prostate
EKVX NSCLC = system: EKVX NSCLC
HCT-116 colon = system: HCT-116 colon
HCT-15 colon = system: HCT-15 colon
HL-60(TB) leukemia = system: HL-60(TB) leukemia
HOP-62 NSCLC = system: HOP-62 NSCLC
HS 578T breast = system: HS 578T breast
HT29 colon = system: HT29 colon
IGROV1 ovarian = system: IGROV1 ovarian
K-562 leukemia = system: K-562 leukemia
KM12 colon = system: KM12 colon
LOX IMVI melanoma = system: LOX IMVI melanoma
M14 melanoma = system: M14 melanoma
MALME-3M melanoma = system: MALME-3M melanoma
MCF7 breast = system: MCF7 breast
MDA-MB-231 breast = system: MDA-MB-231 breast
MDA-MB-435 = system: MDA-MB-435
MDA-N = system: MDA-N
MOLT-4 leukemia = system: MOLT-4 leukemia
NCI-H226 lung = system: NCI-H226 lung
NCI-H23 lung = system: NCI-H23 lung
NCI/ADR-RES ovarian = system: NCI/ADR-RES ovarian
OVCAR-3 ovarian = system: OVCAR-3 ovarian
OVCAR-5 ovarian = system: OVCAR-5 ovarian
OVCAR-8 ovarian = system: OVCAR-8 ovarian
PC-3 prostate = system: PC-3 prostate
RPMI-8226 leukemia = system: RPMI-8226 leukemia
RXF 393 renal = system: RXF 393 renal
SF-268 CNS = system: SF-268 CNS
SF-295 CNS = system: SF-295 CNS
SF-539 CNS = system: SF-539 CNS
SK-MEL-2 melanoma = system: SK-MEL-2 melanoma
SK-MEL-28 melanoma = system: SK-MEL-28 melanoma
SK-MEL-5 melanoma = system: SK-MEL-5 melanoma
SK-OV-3 ovarian = system: SK-OV-3 ovarian
SN12C renal = system: SN12C renal
SNB-19 CNS = system: SNB-19 CNS
SNB-75 CNS = system: SNB-75 CNS
SW-620 colon = system: SW-620 colon
T-47D breast = system: T-47D breast
TK-10 renal = system: TK-10 renal
U251 CNS = system: U251 CNS
UACC-257 melanoma = system: UACC-257 melanoma
UACC-62 melanoma = system: UACC-62 melanoma
UO-31 renal = system: UO-31 renal
A549 NSCLC = system: A549 NSCLC
HCC-2998 colon = system: HCC-2998 colon
HOP-92 NSCLC = system: HOP-92 NSCLC
NCI-H460 lung = system: NCI-H460 lung
NCI-H522 lung = system: NCI-H522 lung
OVCAR-4 ovarian = system: OVCAR-4 ovarian
SR leukemia = system: SR leukemia

SMILES: CC(C)CCCC(=O)CCCCCCC(=O)CCN(O)C(=O)C(N)CO (centres undefined)
- TGI (786-0 renal): 36.2 µM
- TGI (A498 renal): 31.8 µM
- TGI (ACHN renal): 34.9 µM
- TGI (BT-549 breast): 34.5 µM
- TGI (CAKI-1 renal): 39.4 µM
- TGI (CCRF-CEM leukemia): > 100 µM
- TGI (COLO 205 colon): 53.5 µM
- TGI (DU-145 prostate): 37.4 µM
- TGI (EKVX NSCLC): 27.5 µM
- TGI (HCT-116 colon): 38 µM
- TGI (HCT-15 colon): 42.6 µM
- TGI (HL-60(TB) leukemia): 60.2 µM
- TGI (HOP-62 NSCLC): 40.8 µM
- TGI (HS 578T breast): 68.8 µM
- TGI (HT29 colon): 43.5 µM
- TGI (IGROV1 ovarian): 31.9 µM
- TGI (K-562 leukemia): > 100 µM
- TGI (KM12 colon): 35.9 µM
- TGI (LOX IMVI melanoma): 30.9 µM
- TGI (M14 melanoma): 61.5 µM
- TGI (MALME-3M melanoma): 36.6 µM
- TGI (MCF7 breast): 44.7 µM
- TGI (MDA-MB-231 breast): 34.7 µM
- TGI (MDA-MB-435): 83.6 µM
- TGI (MDA-N): 49.4 µM
- TGI (MOLT-4 leukemia): > 100 µM
- TGI (NCI-H226 lung): 35.6 µM
- TGI (NCI-H23 lung): 32.1 µM
- TGI (NCI/ADR-RES ovarian): 38.4 µM
- TGI (OVCAR-3 ovarian): 41.6 µM
- TGI (OVCAR-5 ovarian): 50.6 µM
- TGI (OVCAR-8 ovarian): 39.3 µM
- TGI (PC-3 prostate): 28.2 µM
- TGI (RPMI-8226 leukemia): 57.5 µM
- TGI (RXF 393 renal): 27.4 µM
- TGI (SF-268 CNS): 60 µM
- TGI (SF-295 CNS): 36.3 µM
- TGI (SF-539 CNS): 37.4 µM
- TGI (SK-MEL-2 melanoma): 39.5 µM
- TGI (SK-MEL-28 melanoma): 41.5 µM
- TGI (SK-MEL-5 melanoma): 43.7 µM
- TGI (SK-OV-3 ovarian): 35.6 µM
- TGI (SN12C renal): 43 µM
- TGI (SNB-19 CNS): 48.6 µM
- TGI (SNB-75 CNS): 31.1 µM
- TGI (SW-620 colon): > 100 µM
- TGI (T-47D breast): 34.8 µM
- TGI (TK-10 renal): 32.2 µM
- TGI (U251 CNS): 65 µM
- TGI (UACC-257 melanoma): 35.1 µM
- TGI (UACC-62 melanoma): 34.6 µM
- TGI (UO-31 renal): 26.7 µM

SMILES: COC(=O)C(COC(C)=O)NC(=O)/C=C/c1ccc(O)c(OC(C)=O)c1 (centres undefined)
- TGI (786-0 renal): > 100 µM
- TGI (A498 renal): > 100 µM
- TGI (A549 NSCLC): > 100 µM
- TGI (ACHN renal): > 100 µM
- TGI (BT-549 breast): > 100 µM
- TGI (CAKI-1 renal): > 100 µM
- TGI (CCRF-CEM leukemia): > 100 µM
- TGI (COLO 205 colon): > 100 µM
- TGI (DU-145 prostate): > 100 µM
- TGI (EKVX NSCLC): > 100 µM
- TGI (HCC-2998 colon): > 100 µM
- TGI (HCT-116 colon): > 100 µM
- TGI (HCT-15 colon): > 100 µM
- TGI (HOP-62 NSCLC): > 100 µM
- TGI (HOP-92 NSCLC): > 100 µM
- TGI (HS 578T breast): > 100 µM
- TGI (HT29 colon): > 100 µM
- TGI (IGROV1 ovarian): > 100 µM
- TGI (K-562 leukemia): > 100 µM
- TGI (KM12 colon): > 100 µM
- TGI (LOX IMVI melanoma): > 100 µM
- TGI (M14 melanoma): > 100 µM
- TGI (MALME-3M melanoma): > 100 µM
- TGI (MCF7 breast): > 100 µM
- TGI (MDA-MB-231 breast): > 100 µM
- TGI (MDA-MB-435): > 100 µM
- TGI (MDA-N): > 100 µM
- TGI (MOLT-4 leukemia): > 100 µM
- TGI (NCI-H226 lung): > 100 µM
- TGI (NCI-H23 lung): > 100 µM
- TGI (NCI-H460 lung): > 100 µM
- TGI (NCI-H522 lung): 40.4 µM
- TGI (NCI/ADR-RES ovarian): > 100 µM
- TGI (OVCAR-3 ovarian): > 100 µM
- TGI (OVCAR-4 ovarian): > 100 µM
- TGI (OVCAR-5 ovarian): > 100 µM
- TGI (OVCAR-8 ovarian): > 100 µM
- TGI (PC-3 prostate): > 100 µM
- TGI (RPMI-8226 leukemia): > 100 µM
- TGI (SF-268 CNS): > 100 µM
- TGI (SF-295 CNS): > 100 µM
- TGI (SF-539 CNS): 53.9 µM
- TGI (SK-MEL-2 melanoma): > 100 µM
- TGI (SK-MEL-28 melanoma): > 100 µM
- TGI (SK-MEL-5 melanoma): > 100 µM
- TGI (SK-OV-3 ovarian): > 100 µM
- TGI (SN12C renal): > 100 µM
- TGI (SNB-19 CNS): > 100 µM
- TGI (SNB-75 CNS): > 100 µM
- TGI (SR leukemia): > 100 µM
- TGI (SW-620 colon): > 100 µM
- TGI (T-47D breast): > 100 µM
- TGI (TK-10 renal): > 100 µM
- TGI (U251 CNS): > 100 µM
- TGI (UACC-257 melanoma): > 100 µM
- TGI (UACC-62 melanoma): > 100 µM
- TGI (UO-31 renal): > 100 µM
